# Reference: US11717508B2, “Compounds, compositions, and methods for inhibiting bacterial growth” (priority 2016, dated 2023)
# Several values for one entry are separate records, joined by “and”; a condition that tells them apart may be missing. Identical values can stand only once. Like-named read-outs stand apart in the source and are kept apart here.
# Tested on: CDC1551(ΔdosR) mutant
# Type: cell-based
# Settings: for log2 Fold change: DosR mutant, HC101A vs DMSO; for Counts per million (CPM): DosR mutant treated with HC101A, replicates 1, 2
smiles,measurement,setting,value
"C[C@@H]1CC[C@H]2[C@@H](C)C(=O)O[C@@H]3O[C@]4(C)CC[C@@H]1[C@]32OO4 [HC101A, artemisinin, reference compound]",downregulated genes in CDC1551(ΔdosR) mutant treated with compound,"40 μM, 6 days, >2-fold, p<0.05",69 genes
same,log2 Fold change,gene MT0169 Rv0160c PE,−1.408
same,log2 Fold change,gene MT0258 Rv0244c fadE5,−1.069
same,log2 Fold change,gene MT0273 Rv0260c,−1.854
same,Counts per million (CPM),gene MT0292 Rv0280 PPE,31.79 CPM and 16.54 CPM
same,log2 Fold change,gene MT0292 Rv0280 PPE,−1.247
same,Counts per million (CPM),gene MT0329 Rv0315,113.2 CPM and 189.1 CPM
same,log2 Fold change,gene MT0329 Rv0315,−1.246
same,Counts per million (CPM),gene MT0456 Rv0440 groEL2,"5,842.91 CPM and 4,666.11 CPM"
same,log2 Fold change,gene MT0456 Rv0440 groEL2,−1.245
same,Counts per million (CPM),gene MT0483 Rv0467 aceA,884.5 CPM and 561.1 CPM
same,log2 Fold change,gene MT0483 Rv0467 aceA,−1.499
same,Counts per million (CPM),gene MT0484,179.4 CPM and 142.8 CPM
same,log2 Fold change,gene MT0484,−1.278
same,Counts per million (CPM),gene MT0493 Rv0475,790.8 CPM and 938.1 CPM
same,log2 Fold change,gene MT0493 Rv0475,−1.077
same,log2 Fold change,gene MT0532 Rv0511 cysG,1.218
same,log2 Fold change,gene MT0533 Rv0512 hemB,1.276
same,log2 Fold change,gene MT0583 Rv0557,1.113
same,log2 Fold change,gene MT0586 Rv0560c,1.95
same,log2 Fold change,gene MT0658 Rv0630c recB,1.021
same,log2 Fold change,gene MT0705 Rv0676c mmpL5,1.881
same,log2 Fold change,gene MT0706 Rv0677c mmpS5,1.662
same,log2 Fold change,gene MT0706.1 Rv0678,1.572
same,log2 Fold change,gene MT0772.5 Rv0747 PE_PGRS,1.043
same,log2 Fold change,gene MT0808 Rv0784,2.116
same,Counts per million (CPM),gene MT0901 Rv0878c PPE,18.57 CPM and 12.14 CPM
same,log2 Fold change,gene MT0901 Rv0878c PPE,−1.047
same,Counts per million (CPM),gene MT0908 Rv0885,437.9 CPM and 441.4 CPM
same,log2 Fold change,gene MT0908 Rv0885,−3.4
same,Counts per million (CPM),gene MT0909 Rv0886 fprB,103.6 CPM and 55.4 CPM
same,log2 Fold change,gene MT0909 Rv0886 fprB,−3.149
same,Counts per million (CPM),gene MT0911 Rv0888,9.416 CPM and 8.907 CPM
same,log2 Fold change,gene MT0911 Rv0888,−1.599
same,Counts per million (CPM),gene MT0915.1,9.867 CPM and 9.495 CPM
same,log2 Fold change,gene MT0915.1,−1.202
same,log2 Fold change,gene MT0956 Rv0929 pstC2,1.037
same,Counts per million (CPM),gene MT1019 Rv0990c,62.69 CPM and 83.49 CPM
same,log2 Fold change,gene MT1019 Rv0990c,−1.236
same,Counts per million (CPM),gene MT1020,"529.4 CPM and 1,032.48 CPM"
same,log2 Fold change,gene MT1020,−1.261
same,log2 Fold change,gene MT1073 Rv1043c,1.069
same,log2 Fold change,gene MT1123 Rv1091 PE_PGRS,1.015
same,Counts per million (CPM),gene MT1224 Rv1187 rocA,50.05 CPM and 29.85 CPM
same,log2 Fold change,gene MT1224 Rv1187 rocA,−1.028
same,Counts per million (CPM),gene MT1233 Rv1195 PE,282.5 CPM and 86.53 CPM
same,log2 Fold change,gene MT1233 Rv1195 PE,−1.537
same,log2 Fold change,gene MT1296 Rv1257c,1.198
same,log2 Fold change,gene MT1297 Rv1258c,1.744
same,log2 Fold change,gene MT1303 Rv1265,1.132
same,Counts per million (CPM),gene MT1385,26.31 CPM and 28.68 CPM
same,log2 Fold change,gene MT1385,−1.733
same,log2 Fold change,gene MT1424 Rv1380 pyrB,1.245
same,log2 Fold change,gene MT1425 Rv1381 pyrC,1.176
same,log2 Fold change,gene MT1426,1.289
same,log2 Fold change,gene MT1427 Rv1383 car A,1.005
same,log2 Fold change,gene MT1428 Rv1384 carB,1.115
same,log2 Fold change,gene MT1429 Rv1385 pyrF,1.522
same,Counts per million (CPM),gene MT1430 Rv1386 PE,77.39 CPM and 47.87 CPM
same,log2 Fold change,gene MT1430 Rv1386 PE,−1.005
same,Counts per million (CPM),gene MT1431 Rv1387 PPE,317.7 CPM and 543.6 CPM
same,log2 Fold change,gene MT1431 Rv1387 PPE,−1.201
same,Counts per million (CPM),gene MT1484 Rv1439c,6.965 CPM and 6.852 CPM
same,log2 Fold change,gene MT1484 Rv1439c,−1.508
same,Counts per million (CPM),gene MT1585.1,293.5 CPM and 393.7 CPM
same,log2 Fold change,gene MT1585.1,−2.24
same,Counts per million (CPM),gene MT1586 Rv535 Rv1535,44.69 CPM and 38.96 CPM
same,log2 Fold change,gene MT1586 Rv535 Rv1535,−1.971
same,log2 Fold change,gene MT1620 Rv1569 bioF,1.182
same,Counts per million (CPM),gene MT1627,22.44 CPM and 21.44 CPM
same,log2 Fold change,gene MT1627,−1.25
same,Counts per million (CPM),gene MT1628 Rv1592c,334.3 CPM and 332.3 CPM
same,log2 Fold change,gene MT1628 Rv1592c,−1.21
same,Counts per million (CPM),gene MT1736,181.3 CPM and 300.2 CPM
same,log2 Fold change,gene MT1736,−1.039
same,Counts per million (CPM),gene MT1775,17.8 CPM and 12.82 CPM
same,log2 Fold change,gene MT1775,−1.012
same,log2 Fold change,gene MT1836 Rv1787 PPE,1.847
